Here are results for one compound from patent US12264185B2, “Stabilized BCL9 peptides for treatment of aberrant Wnt signaling” (WntRx Pharmaceuticals Inc., priority 2015, dated 2025).

The test system of data set [1] is TNF-alpha/JNK. As to the kind of experiment: TNF-alpha/JNK transcription assay (AP1-bla ME-180 cell line). The data set is classed as cell-based. An excerpt:
In these assays, the trifluoroacetic salt form of WX-024 was used.

The nature of data set [2]: Preliminary solubility study. The data set is classed as physicochemical. As to conditions: water, DMSO, and PBS.

Where two headings read alike, the source gives them in different places.

For the compound `CC[C@H](C)[C@@H]1NC(=O)[C@@](C)(NC(=O)[C@H](CCCNC(=N)N)NC(=O)[C@H](CC(C)C)NC(=O)[C@@H](NC(=O)[C@H](CCC(N)=O)NC(=O)[C@H](CC(C)C)NC(C)=O)[C@@H](C)O)CCCC=CCCC[C@@](C)(C(=O)N[C@@H](CC(C)C)C(=O)N[C@@H](Cc2ccc3ccccc3c2)C(N)=O)NC(=O)[C@H](CCCNC(=N)N)NC(=O)[C@H](CCC(N)=O)NC1=O` [WX-024, LQTLRXaa1IQRXaa2L], the IC50 in data set [1] (AP1-bla ME-180, TNF-alpha stimulation, trifluoroacetic salt form, read-out: IC50 (nM), TNP-alpha/JNK pathway) is above 1000 nM; in data set [1] (Example 4.5, read-out: IC50, TNF-alpha/JNK transcription assay), above 10000 nM; in data set [1] (summary, Example 6, read-out: IC50, TNF-α/JNK reporter assay) it was above 100 nM. The same compound returned a solubility in data set [2] of at least 1000 µg/mL.
